Reference: ChEMBL document CHEMBL1201862, “PubChem BioAssay data set” (2004)
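These data come from cells grown in 96-well plates and exposed to compound for 48 hours at five concentrations. The concentration for 50% growth inhibition is given as GI50.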 Calls of active or inactive are those of the source. Cut-off read from the data, not from the text of the source: active = GI50 up to about 1.1 µM and inactive = higher.

What was measured:
Assay in all cases: inhibition of tumour cell growth, NCI panel, 48 h
HCT-116 = system: HCT-116
UO-31 = system: UO-31
LOX IMVI = system: LOX IMVI
RXF 393 = system: RXF 393
NCI-H522 = system: NCI-H522
SK-OV-3 = system: SK-OV-3
RPMI-8226 = system: RPMI-8226
CCRF-CEM = system: CCRF-CEM
SK-MEL-28 = system: SK-MEL-28
786-0 = system: 786-0
ACHN = system: ACHN
TK-10 = system: TK-10
NCI-H23 = system: NCI-H23
MDA-MB-435 = system: MDA-MB-435
COLO 205 = system: COLO 205
HOP-62 = system: HOP-62
SF-268 = system: SF-268
SNB-75 = system: SNB-75
SF-295 = system: SF-295
HOP-92 = system: HOP-92

Compound	GI50 (HCT-116)	GI50 (UO-31)	GI50 (LOX IMVI)	GI50 (RXF 393)	GI50 (NCI-H522)	GI50 (SK-OV-3)	GI50 (RPMI-8226)	GI50 (CCRF-CEM)	GI50 (SK-MEL-28)	GI50 (786-0)	GI50 (ACHN)	GI50 (TK-10)	GI50 (NCI-H23)	GI50 (MDA-MB-435)	GI50 (COLO 205)	GI50 (HOP-62)	GI50 (SF-268)	GI50 (SNB-75)	GI50 (SF-295)	GI50 (HOP-92)
Cc1nc(O)c(Cc2ccccc2O)c(-c2ccccc2)n1	> 100 µM (inactive)	> 100 µM (inactive)	> 100 µM (inactive)	> 100 µM (inactive)	> 100 µM (inactive)	> 100 µM (inactive)	> 100 µM (inactive)	99.3 µM (inactive)	> 100 µM (inactive)	> 100 µM (inactive)	> 100 µM (inactive)	> 100 µM (inactive)	> 100 µM (inactive)	> 100 µM (inactive)	> 100 µM (inactive)	> 100 µM (inactive)	> 100 µM (inactive)	22.4 µM (inactive)	> 100 µM (inactive)	> 100 µM (inactive)
CC1C(=O)C(C)C(c2ccccc2)N(N=O)C1c1ccccc1 (stereo not given)	127 µM (inactive)	> 21.1 µM (inactive)	> 533 µM (inactive)	36.9 µM (inactive)	> 78.3 µM (inactive)	37.2 µM (inactive)	> 724 µM (inactive)	> 662 µM (inactive)	> 409 µM (inactive)	126 µM (inactive)	143 µM (inactive)	207 µM (inactive)	> 69 µM (inactive)	157 µM (inactive)	> 553 µM (inactive)	41.8 µM (inactive)	65.2 µM (inactive)	34 µM (inactive)	48.8 µM (inactive)	24.9 µM (inactive)
CC1(C)CCC[C@@]2(C)C1C(=O)[C@@H]1O[C@]1(C)[C@@H]2CO (stereo not given in full)	19.7 µM (inactive)	53.7 µM (inactive)	19.8 µM (inactive)	25.6 µM (inactive)	22.6 µM (inactive)	39.6 µM (inactive)	15.2 µM (inactive)	11.4 µM (inactive)	13.7 µM (inactive)	23.2 µM (inactive)	40.3 µM (inactive)	80 µM (inactive)	16.3 µM (inactive)	21 µM (inactive)	18.4 µM (inactive)	40.2 µM (inactive)	26.2 µM (inactive)	24.5 µM (inactive)	18.2 µM (inactive)	27.8 µM (inactive)
O=C1N[C@@H](c2c[nH]c3ccc(Br)cc23)C(=O)N[C@H]1c1c[nH]c2ccc(Br)cc12	7.93 µM (inactive)	16.3 µM (inactive)	6.14 µM (inactive)	15.6 µM (inactive)	6.61 µM (inactive)	15.9 µM (inactive)	7.46 µM (inactive)	4.11 µM (inactive)	15.1 µM (inactive)	11.5 µM (inactive)	3.68 µM (inactive)	4.06 µM (inactive)	10.6 µM (inactive)	4.25 µM (inactive)	7.21 µM (inactive)	12 µM (inactive)	8.15 µM (inactive)	1.55 µM (inactive)	11.9 µM (inactive)	3.71 µM (inactive)
NC(=O)c1ccc(NCC2=CC(=O)C=CC2=O)cc1	18.7 µM (inactive)	17.3 µM (inactive)	17.5 µM (inactive)	18.7 µM (inactive)	16.3 µM (inactive)	> 100 µM (inactive)	18.7 µM (inactive)	7.01 µM (inactive)	20.5 µM (inactive)	19.6 µM (inactive)	17.7 µM (inactive)	17.7 µM (inactive)	25.9 µM (inactive)	17.2 µM (inactive)	19.1 µM (inactive)	> 100 µM (inactive)	22.9 µM (inactive)	21 µM (inactive)	> 100 µM (inactive)	16.5 µM (inactive)
CCOC(=O)c1c(C)n(Cc2ccccc2)c(=O)c2ccccc2c(=O)c2c(=O)ccc(=O)c1=2	18.2 µM (inactive)	17.9 µM (inactive)	25.2 µM (inactive)	23.8 µM (inactive)	23.9 µM (inactive)	> 100 µM (inactive)	31.2 µM (inactive)	42.1 µM (inactive)	55.7 µM (inactive)	27 µM (inactive)	30.7 µM (inactive)	29.1 µM (inactive)	62.8 µM (inactive)	> 100 µM (inactive)	43.4 µM (inactive)	> 100 µM (inactive)	57.7 µM (inactive)	> 100 µM (inactive)	> 100 µM (inactive)	14.9 µM (inactive)
CCC1(CC)SCc2nc3ccccc3n21	23.9 µM (inactive)	35.4 µM (inactive)	34.8 µM (inactive)	32.2 µM (inactive)	37.6 µM (inactive)	38.5 µM (inactive)	24.9 µM (inactive)	33.4 µM (inactive)	37.2 µM (inactive)	66.4 µM (inactive)	30.1 µM (inactive)	38.8 µM (inactive)	27.7 µM (inactive)	26 µM (inactive)	19.8 µM (inactive)	37.1 µM (inactive)	52 µM (inactive)	12.6 µM (inactive)	36.5 µM (inactive)	18 µM (inactive)
CC(=O)N(CN1C(=O)CCC1C(=O)O)c1ccccc1 (stereo not given)	> 56 µM (inactive)	> 56.9 µM (inactive)	> 56.9 µM (inactive)	> 60.3 µM (inactive)	> 53 µM (inactive)	> 56.1 µM (inactive)	> 55.2 µM (inactive)	> 54.2 µM (inactive)	> 100 µM (inactive)	> 53.8 µM (inactive)	> 56.6 µM (inactive)	> 53.5 µM (inactive)	> 56.2 µM (inactive)	> 100 µM (inactive)	> 58.6 µM (inactive)	> 55.6 µM (inactive)	> 52.4 µM (inactive)	> 56.5 µM (inactive)	> 52.6 µM (inactive)	> 63.1 µM (inactive)
O=S(=O)(c1ccccc1)n1c2cc3cccnc3nc2c2cccnc21	82.2 µM (inactive)	> 100 µM (inactive)	42.5 µM (inactive)	27.6 µM (inactive)	33.3 µM (inactive)	> 100 µM (inactive)	18.5 µM (inactive)	22.4 µM (inactive)	> 100 µM (inactive)	71.8 µM (inactive)	62.7 µM (inactive)	> 100 µM (inactive)	44.9 µM (inactive)	25.5 µM (inactive)	72.9 µM (inactive)	60 µM (inactive)	56.8 µM (inactive)	28.4 µM (inactive)	49.8 µM (inactive)	21.1 µM (inactive)
CCc1cccc(C(C)C)c1NC1=C([n+]2ccc(C)cc2)C(=O)c2ccccc2C1=O.[O-][Cl+3]([O-])([O-])[O-]	3.21 µM (inactive)	1.23 µM (inactive)	0.673 µM (active)	0.575 µM (active)	1.32 µM (inactive)	2.64 µM (inactive)	0.423 µM (active)	0.21 µM (active)	7.64 µM (inactive)	0.481 µM (active)	0.275 µM (active)	7.87 µM (inactive)	1.93 µM (inactive)	1.7 µM (inactive)	1.1 µM (active)	0.804 µM (active)	0.359 µM (active)	1.75 µM (inactive)	1.87 µM (inactive)	0.451 µM (active)
O=C/C=C/c1ccco1	> 100 µM (inactive)	> 100 µM (inactive)	> 100 µM (inactive)	> 100 µM (inactive)	> 100 µM (inactive)	> 100 µM (inactive)	> 100 µM (inactive)	9.48 µM (inactive)	> 100 µM (inactive)	> 100 µM (inactive)	> 100 µM (inactive)	> 100 µM (inactive)	> 100 µM (inactive)	> 100 µM (inactive)	> 100 µM (inactive)	> 100 µM (inactive)	> 100 µM (inactive)	> 100 µM (inactive)	61.8 µM (inactive)	> 100 µM (inactive)
COc1cccc(C(NC2=NCCC=N2)c2cc3c(cc2O)OCO3)c1O (stereo not given)	24.1 µM (inactive)	35.6 µM (inactive)	19.5 µM (inactive)	23.8 µM (inactive)	15.8 µM (inactive)	94 µM (inactive)	21.5 µM (inactive)	10.8 µM (inactive)	32.7 µM (inactive)	12.4 µM (inactive)	48 µM (inactive)	76.9 µM (inactive)	32.1 µM (inactive)	29 µM (inactive)	40.1 µM (inactive)	25.7 µM (inactive)	34.8 µM (inactive)	23.3 µM (inactive)	42.2 µM (inactive)	23.7 µM (inactive)
CC(CN(C)C)C(O)(c1ccccc1)c1ccccc1 (stereo not given)	> 100 µM (inactive)	> 100 µM (inactive)	> 100 µM (inactive)	> 100 µM (inactive)	> 100 µM (inactive)	> 100 µM (inactive)	> 100 µM (inactive)	> 100 µM (inactive)	> 100 µM (inactive)	> 100 µM (inactive)	> 100 µM (inactive)	> 100 µM (inactive)	> 100 µM (inactive)	> 100 µM (inactive)	> 100 µM (inactive)	> 100 µM (inactive)	> 100 µM (inactive)	> 100 µM (inactive)	> 100 µM (inactive)	> 100 µM (inactive)
N#CC(C#N)=C(N)/C(C#N)=C/c1ccc(O)c(O)c1	54 µM (inactive)	37.2 µM (inactive)	52.8 µM (inactive)	> 100 µM (inactive)	> 61.2 µM (inactive)	> 100 µM (inactive)	71.3 µM (inactive)	19.8 µM (inactive)	> 100 µM (inactive)	> 91.8 µM (inactive)	> 85.7 µM (inactive)	> 100 µM (inactive)	> 100 µM (inactive)	87.1 µM (inactive)	> 65.2 µM (inactive)	15.5 µM (inactive)	> 83.2 µM (inactive)	74.8 µM (inactive)	> 20.4 µM (inactive)	43.6 µM (inactive)
